Measured values reported in the supplement of paper PMC10307832.

Experiments:
Assay in all cases: relative viability (nuclei count vs DMSO), 5 days (fraction); higher = more cells survive
Kobe2602 + Crizotinib = compound: C1=CC(=CC=C1NC(=S)NNC2=C(C=C(C=C2[N+](=O)[O-])C(F)(F)F)[N+](=O)[O-])F [Kobe2602] + C[C@@H](Oc1cc(-c2cnn(C3CCNCC3)c2)cnc1N)c1c(Cl)ccc(F)c1Cl [Crizotinib] (partner 1 µM)
In short: (§1)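 The day after seeding in 1536-well plates, lung cancer cell lines were treated by pin tool with a single drug, or with a fixed anchor-drug dose together with five library-drug doses (not always all listed) in √10 steps. After 5 days, a combined fix-and-stain solution (final 0.05% Triton X-100, 1% formaldehyde, 1 ug/ml Hoechst) was added. Nuclei counted on 4× images gave relative viability as treated counts over vehicle counts, reported as the median of duplicate plates.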

[1] = compound: COc1cc2nccc(Oc3ccc(NC(=O)C4(C(=O)Nc5ccc(F)cc5)CC4)cc3)c2cc1OC [Cabozantinib] + Nc1ncn([C@H]2C[C@H](O)[C@@H](CO)O2)c(=O)n1 [Decitabine] (partner 2 µM)
In short: as §1

Zosuquidar + Luminespib = compound: O[C@@H](COc1cccc2ncccc12)CN1CCN([C@@H]2c3ccccc3[C@@H]3[C@H](c4ccccc42)C3(F)F)CC1 [Zosuquidar] + CCNC(=O)c1noc(-c2cc(C(C)C)c(O)cc2O)c1-c1ccc(CN2CCOCC2)cc1 [Luminespib] (partner 0.01 µM)
In short: as §1

Kobe2602 + Bortezomib = compound: C1=CC(=CC=C1NC(=S)NNC2=C(C=C(C=C2[N+](=O)[O-])C(F)(F)F)[N+](=O)[O-])F [Kobe2602] + CC(C)C[C@H](NC(=O)[C@H](Cc1ccccc1)NC(=O)c1cnccn1)B(O)O [Bortezomib] (partner 0.002 µM)
In short: as §1

| Cell Line | relative viability (Kobe2602 + Crizotinib; first compound 0.2 µM) | relative viability (Kobe2602 + Crizotinib; first compound 0.6325 µM) | relative viability (Kobe2602 + Crizotinib; first compound 2 µM) | relative viability (Kobe2602 + Crizotinib; first compound 6.325 µM) | relative viability (Kobe2602 + Crizotinib; first compound 20 µM) | relative viability ([1]; first compound 0.02 µM) | relative viability ([1]; first compound 0.06325 µM) | relative viability ([1]; first compound 0.2 µM) | relative viability ([1]; first compound 0.6325 µM) | relative viability ([1]; first compound 2 µM) | relative viability (Zosuquidar + Luminespib; first compound 0.01 µM) | relative viability (Zosuquidar + Luminespib; first compound 0.03162 µM) | relative viability (Zosuquidar + Luminespib; first compound 0.1 µM) | relative viability (Zosuquidar + Luminespib; first compound 0.3162 µM) | relative viability (Zosuquidar + Luminespib; first compound 1 µM) | relative viability (Kobe2602 + Bortezomib; first compound 0.2 µM) | relative viability (Kobe2602 + Bortezomib; first compound 0.6325 µM) | relative viability (Kobe2602 + Bortezomib; first compound 2 µM) | relative viability (Kobe2602 + Bortezomib; first compound 6.325 µM) | relative viability (Kobe2602 + Bortezomib; first compound 20 µM) |
| --- | --- | --- | --- | --- | --- | --- | --- | --- | --- | --- | --- | --- | --- | --- | --- | --- | --- | --- | --- | --- |
| SK-MES-1 | 0.966 | 0.964 | 0.954 | 1.04 | 1 | 0.449 | 0.412 | 0.373 | 0.431 | 0.399 | 0.72 | 0.732 | 0.732 | 0.881 | 0.938 | – | – | – | – | – |
| HCC-366 | 0.434 | 0.597 | 0.494 | 0.569 | 0.655 | 0.351 | 0.393 | 0.336 | 0.305 | 0.354 | – | – | – | – | – | 1.13 | 1.01 | 1.01 | 1.07 | 1.12 |
| NCI-H3122 | 0.262 | 0.255 | 0.254 | 0.263 | 0.266 | 0.394 | 0.413 | 0.422 | 0.411 | 0.467 | 0.095 | 0.0891 | 0.0947 | 0.0965 | 0.0865 | 1.09 | 0.96 | 0.93 | 1.04 | 1.08 |
| COR-L 105 | 0.85 | 0.838 | 0.653 | 0.966 | 0.831 | 0.606 | 0.764 | 0.582 | 0.735 | 0.69 | 0.923 | 0.789 | 0.757 | 0.858 | 0.782 | 0.688 | 1.14 | 0.739 | 0.692 | 0.746 |
| 201T | 1.07 | 1.02 | 1.04 | 1.02 | 1.1 | 0.874 | 0.945 | 0.839 | 0.836 | 0.826 | 1.02 | 1 | 0.961 | 1.12 | 1.04 | 0.956 | 1.05 | 1.12 | 1.18 | 1.13 |
| NCI-H2228 | 0.484 | 0.504 | 0.441 | 0.494 | 0.585 | – | – | – | – | – | 0.124 | 0.163 | 0.185 | 0.171 | 0.206 | 1.11 | 0.849 | 0.953 | 0.947 | 1.12 |
| LC-2-ad | 0.433 | 0.465 | 0.464 | 0.547 | 0.494 | 0.814 | 0.811 | 0.772 | 0.633 | 0.539 | 1.05 | 0.85 | 0.981 | 0.999 | 0.987 | 0.946 | 1 | 0.941 | 1.02 | 0.993 |
| NCI-H2087 | 0.671 | 0.766 | 0.922 | 0.786 | 0.802 | 0.311 | 0.279 | 0.303 | 0.306 | 0.212 | 0.155 | – | 0.184 | 0.195 | 0.16 | 0.778 | 0.626 | 0.644 | 0.851 | 0.83 |
| LK-2 | 0.248 | 0.273 | 0.231 | 0.271 | 0.257 | 0.182 | 0.369 | 0.336 | 0.301 | 0.267 | 0.185 | 0.184 | 0.169 | 0.172 | 0.172 | – | – | – | – | – |
| H3255 | 0.906 | 1.12 | 0.802 | 0.839 | 0.874 | 0.618 | 0.636 | – | 0.685 | 0.644 | 1.02 | 0.925 | 0.666 | 1.05 | 0.814 | 0.691 | 0.782 | 0.743 | 0.818 | 0.766 |
| NCI-H2347 | 0.613 | 0.643 | 0.612 | 0.712 | 0.785 | 0.66 | 0.667 | 0.601 | 0.609 | 0.516 | 0.539 | 0.51 | 0.256 | 0.34 | 0.602 | 1.16 | 1.01 | 0.879 | 0.827 | 1.44 |
| CAL-12T | 0.604 | 0.569 | 0.618 | 0.641 | 0.549 | – | – | – | – | – | 0.443 | 0.575 | 0.513 | 0.221 | 0.504 | 0.997 | 1.17 | 0.921 | 0.931 | 0.93 |
| A-427 | 0.898 | 0.903 | 0.843 | 1 | 1.01 | 0.569 | 0.589 | 0.57 | 0.621 | 0.596 | 1.15 | 0.963 | 0.749 | 1.13 | 0.756 | 0.998 | 0.991 | 0.982 | 0.779 | 1.07 |
| HARA | 1.05 | 1.01 | 1.05 | 1.24 | 0.981 | 0.556 | 0.653 | – | 0.812 | 0.786 | 0.586 | – | 0.837 | 0.92 | 0.649 | 1.17 | 1.1 | 0.994 | 1.14 | 1.12 |
| NCI-H2170 | 1.22 | 1.21 | 1.14 | 1.31 | 1.13 | 0.436 | 0.465 | 0.446 | 0.487 | 0.458 | 0.663 | 0.716 | 0.599 | 0.92 | 0.582 | – | – | – | – | – |
| NCI-H1623 | – | – | – | – | – | – | – | – | – | – | 0.371 | 0.511 | 0.539 | 0.451 | 0.476 | – | – | – | – | – |
| NCI-H2023 | 0.674 | 0.627 | 0.526 | 0.611 | 0.473 | 0.261 | 0.235 | 0.239 | 0.234 | 0.24 | 0.796 | 0.619 | 0.904 | 0.776 | 0.759 | 0.954 | 0.995 | 0.873 | 0.945 | 0.927 |
| ABC-1 | 1 | 1.04 | 1.06 | 1.21 | 1.08 | – | 0.846 | 1.05 | 1.05 | 0.982 | 0.682 | 0.742 | 0.748 | 0.603 | 0.474 | 0.42 | 0.256 | 0.283 | 0.35 | 0.336 |
